Measured values published in patent US4785090A, “Cephalosporin derivatives” (Meiji Seika Kaisha, Ltd., priority 1984, dated 1988).
Values after ≈ are worked out from the molar mass of the structure shown. Where a name gives a salt, the structure may show the parent alone. Read-outs that look alike come from different tables or passages of the source.

Tests used:
[1] = tested on: Staphylococcus aureus 209PJC1; assay: Minimum Growth Inhibitory Concentration (MIC), Staphylococcus aureus 209PJC1; assay type: cell-based
Text: (§1) Minimum Growth Inhibitory Concentration (MIC) mcg/ml
1. Staphylococcus aureus 209PJC1
as §1
2. Staphylococcus aureus 209 PJC1

Proteus vulgaris GN 76 = assay: Minimum Growth Inhibitory Concentration (MIC), Proteus vulgaris GN 76; assay type: cell-based
Text: as §1
10. Proteus vulgaris GN 76
as §1
8. Proteus vulgaris GN 76

[2] = tested on: Staphylococcus aureus Smith; assay: Minimum Growth Inhibitory Concentration (MIC), Staphylococcus aureus Smith; assay type: cell-based; settings: read-out: Minimum Growth Inhibitory Concentration (MIC)
Text: as §1
1. Staphylococcus aureus Smith

[3] = tested on: Escherichia coli NIHJ JC2; assay: Minimum Growth Inhibitory Concentration (MIC), Escherichia coli NIHJ JC2; assay type: cell-based
Text: as §1
3. Escherichia coli NIHJ JC2

Eshcerichia coli GN 206 = assay: Minimum Growth Inhibitory Concentration (MIC), Escherichia coli GN 206; assay type: cell-based
Text: as §1
4. Eshcerichia coli GN 206

[4] = tested on: Klebsiella pneumoniae PCI 602; assay: Minimum Growth Inhibitory Concentration (MIC), Klebsiella pneumoniae PCI 602; assay type: cell-based
Text: as §1
5. Klebsiella pneumoniae PCI 602

Proteus mirabilis GN 79 = assay: Minimum Growth Inhibitory Concentration (MIC), Proteus mirabilis GN 79; assay type: cell-based
Text: as §1
6. Proteus mirabilis GN 79

[5] = tested on: Salmonella typhimurium LT2; assay: Minimum Growth Inhibitory Concentration (MIC), Salmonella typhimurium LT2; assay type: cell-based; settings: Salmonella enterica, read-out: Minimum Growth Inhibitory Concentration (MIC)
Text: as §1
7. Salmonella typhimurium LT2

Proteus rettgeri GN624 = assay: Minimum Growth Inhibitory Concentration (MIC), Proteus rettgeri GN624; assay type: cell-based; settings: Providencia rettgeri
Text: as §1
9. Proteus rettgeri GN624

[6] = tested on: Serratia marcescens No. 2; assay: Minimum Growth Inhibitory Concentration (MIC), Serratia marcescens No. 2; assay type: cell-based
Text: as §1
10. Serratia marcescens No. 2

[7] = Serum concentration in mice after subcutaneous administration; assay type: in vivo; settings: mouse, sc, subcutaneous 25 mg/kg
Description: The experiment was conducted by using 3 mice (average body weight 20 g) in each group, subcutaneously administering 25 mg/kg of the sample, taking blood samples at predetermined intervals, separating the serum and measuring the sample concentration by an antibacterial activity test using Escherichia coli as a testing bactera.

[8] = tested on: Serratia marcescens No. 1; assay: Minimum Growth Inhibitory Concentration (MIC), Serratia marcescens No. 1; assay type: cell-based; settings: Table 2, bacterium 11: Serratia marcescens No. 1
Text: as §1
11. Serratia marcescens No. 1

[9] = Staphylococcus aureus, 209PJC1, read-out: Minimum Growth Inhibitory Concentration (MIC)
[10] = Proteus vulgaris, GN76, read-out: Minimum Growth Inhibitory Concentration (MIC)
[11] = Escherichia coli, NIHJJC2, read-out: Minimum Growth Inhibitory Concentration (MIC)
[12] = GN206, read-out: Minimum Growth Inhibitory Concentration (MIC)
[13] = Klebsiella pneumoniae, PCI602, read-out: Minimum Growth Inhibitory Concentration (MIC)
[14] = Proteus mirabilis, GN79, read-out: Minimum Growth Inhibitory Concentration (MIC)
[15] = GN624, read-out: Minimum Growth Inhibitory Concentration (MIC)
[16] = Serratia marcescens, NO.2, read-out: Minimum Growth Inhibitory Concentration (MIC)
[17] = Table 2, bacterium 2: Staphylococcus aureus 209 PJC1, read-out: Minimum Growth Inhibitory Concentration (MIC)
[18] = GN76, Table 2, bacterium 8: Proteus vulgaris GN 76, read-out: Minimum Growth Inhibitory Concentration (MIC)
[19] = Table 2, bacterium 1: Staphylococcus aureus Smith
[20] = NIHJJC2, Table 2, bacterium 3: Escherichia coli NIHJ JC2, read-out: Minimum Growth Inhibitory Concentration (MIC)
[21] = GN206, Table 2, bacterium 4: Eshcerichia coli GN 206, read-out: Minimum Growth Inhibitory Concentration (MIC)
[22] = PCI602, Table 2, bacterium 5: Klebsiella pneumoniae PCI 602, read-out: Minimum Growth Inhibitory Concentration (MIC)
[23] = GN79, Table 2, bacterium 6: Proteus mirabilis GN 79, read-out: Minimum Growth Inhibitory Concentration (MIC)
[24] = Table 2, bacterium 7: Salmonella typhimurium LT2
[25] = Table 2, bacterium 9: Proteus rettgeri GN624, read-out: Minimum Growth Inhibitory Concentration (MIC)
[26] = Table 2, bacterium 10: Serratia marcescens No. 2, read-out: Minimum Growth Inhibitory Concentration (MIC)

Row | SMILES | MIC [1, 17] [µg/mL] | MIC (Proteus vulgaris GN 76; [18]) [µg/mL] | MIC [2, 19] [µg/mL] | MIC [3, 20] [µg/mL] | MIC (Eshcerichia coli GN 206; [21]) [µg/mL] | MIC [4, 22] [µg/mL] | MIC (Proteus mirabilis GN 79; [23]) [µg/mL] | MIC [5, 24] [µg/mL] | MIC (Proteus rettgeri GN624; [25]) [µg/mL] | MIC [8] [µg/mL] | further results
1 | CO/N=C(\C(=O)N[C@@H]1C(=O)N2C(C(=O)O)=C(CSc3cc[n+](CC(=O)O)cc3)CS[C@H]12)c1csc(N)n1.[Na+] |  |  |  |  |  |  |  |  |  |  | MIC [1, 9]: 0.78 µg/mL; MIC (Proteus vulgaris GN 76; [10]): 0.05 µg/mL; MIC ([2]; Staphylococcus aureus): 1.56 µg/mL; MIC [3, 11]: 1.56 µg/mL; MIC (Eshcerichia coli GN 206; [12]): 0.2 µg/mL; MIC [4, 13]: 0.025 µg/mL; MIC (Proteus mirabilis GN 79; [14]): 0.2 µg/mL; MIC ([5]; TYPHIMURIUM): 0.025 µg/mL; MIC (Proteus rettgeri GN624; [15]): 0.39 µg/mL; MIC [6, 16]: 0.05 µg/mL; concentration at 0.5 h ([7]; 1/2 hr): 12500 ng/mL; concentration at 0.25 h ([7]; 1/4 hr): 28000 ng/mL; concentration at 5 min ([7]; 1/12 hr): 20000 ng/mL; concentration at 1 h ([7]; 1 hr): 2200 ng/mL
2 | CCO/N=C(\C(=O)N[C@@H]1C(=O)N2C(C(=O)[O-])=C(CSc3cccc[n+]3CC(=O)O)CS[C@H]12)c1csc(N)n1 [Example 33, sodium salt] | 0.78 | 0.39 | 1.56 | 0.05 | 0.78 | 0.05 | 0.39 | 0.05 | 6.25 |  | MIC [6, 26]: 0.1 µg/mL
3 | Nc1nc(/C(=N/OCC(=O)O)C(=O)N[C@@H]2C(=O)N3C(C(=O)O)=C(CSc4cc[n+](CC(=O)O)cc4)CS[C@H]23)cs1.[Na+] [Example 29, (6R,7R)-7-[(Z)-2-(2-Aminothiazol-4-yl)-2-(carboxymethoxyimino)acetamido]-3-[(1-carboxymethylpyridinium-4-yl)thiomethyl]-ceph-3-em-4-carboxylic acid sodium salt] |  |  |  |  |  |  |  | 0.2 |  |  | MIC [1, 9]: 0.39 µg/mL; MIC (Proteus vulgaris GN 76; [10]): 0.2 µg/mL; MIC ([2]; Staphylococcus aureus): 0.78 µg/mL; MIC [3, 11]: 0.39 µg/mL; MIC (Eshcerichia coli GN 206; [12]): 0.39 µg/mL; MIC [4, 13]: 0.1 µg/mL; MIC (Proteus mirabilis GN 79; [14]): 0.79 µg/mL; MIC (Proteus rettgeri GN624; [15]): 3.13 µg/mL; MIC [6, 16]: 0.39 µg/mL
4 | C=CCO/N=C(\C(=O)N[C@@H]1C(=O)N2C(C(=O)O)=C(CSc3cc[n+](CC(=O)O)cc3)CS[C@H]12)c1csc(N)n1.[Na+] [Example 30, (6R,7R)-7-[(Z)-2-(2-Aminothiazol-4-yl)-2-(allyloxyimino)acetamido]-3-[(1-carboxymethylpyridinium-4-yl)thiomethyl]-ceph-3-em-4-carboxylic acid sodium salt] |  |  |  |  |  |  |  | 0.1 |  |  | MIC [1, 9]: 12.5 µg/mL; MIC (Proteus vulgaris GN 76; [10]): 0.05 µg/mL; MIC ([2]; Staphylococcus aureus): 25 µg/mL; MIC [3, 11]: 25 µg/mL; MIC (Eshcerichia coli GN 206; [12]): 1.56 µg/mL; MIC [4, 13]: 0.1 µg/mL; MIC (Proteus mirabilis GN 79; [14]): 0.05 µg/mL; MIC (Proteus rettgeri GN624; [15]): 0.2 µg/mL; MIC [6, 16]: 0.1 µg/mL
5 | CCO/N=C(\C(=O)N[C@@H]1C(=O)N2C(C(=O)[O-])=C(CSc3cc[n+](C(C(=O)O)c4ccccc4)cc3)CS[C@H]12)c1csc(N)n1 (stereo partly drawn) [Example 32, (6R,7R)-7-[(Z)-2-(2-Aminothiazol-4-yl)-2-ethoxyiminoacetamido]-3-[(1-carboxybenzylpyridinium-4-yl)thiomethyl]-ceph-3-em-4-carboxylic acid sodium salt] | 1.56 | 0.78 | 1.56 | 0.39 | 0.78 | 0.2 | 3.13 | 0.39 | 0.39 |  | MIC [6, 26]: 0.78 µg/mL
6 | CCO/N=C(\C(=O)N[C@@H]1C(=O)N2C(C(=O)[O-])=C(CSc3cc[n+](C(C)C(=O)O)cc3)CS[C@H]12)c1csc(N)n1 (stereo partly drawn) [Example 31, (6R,7R)-7-[(Z)-2-(2-Aminothiazol-4-yl)-2-ethoxyiminoacetamido]-3-[1-(1-carboxy-1-ethylpyridinium-4-yl)thiomethyl]-ceph-3-em-4-carboxylic acid sodium salt] | 3.13 | 1.56 | 3.13 | 6.25 | 0.39 | 0.2 | 0.78 | 0.2 | 0.78 |  | MIC [6, 26]: 0.39 µg/mL
7 | CO/N=C(\C(=O)N[C@@H]1C(=O)N2C(C(=O)[O-])=C(CSc3cc[n+](CCF)cc3)CS[C@H]12)c1csc(N)n1 [Example 84, (6R,7R)-7-[(Z)-2-(2-Aminothiazol-4-yl)-2-methoxyiminoacetamido]-3-[1-(2-fluoroethylpyridinium-4-yl)thiomethyl]-ceph-3-em-4-carboxylate] | 0.2 (≈ 0.362 µM) | 0.2 (≈ 0.362 µM) | 0.2 (≈ 0.362 µM) | 0.05 (≈ 0.0905 µM) | < 0.025 | 0.1 (≈ 0.181 µM) | 0.39 (≈ 0.706 µM) | 0.05 (≈ 0.0905 µM) | 0.1 (≈ 0.181 µM) | 0.025 (≈ 0.0452 µM) | 
8 | CO/N=C(\C(=O)N[C@@H]1C(=O)N2C(C(=O)[O-])=C(CSc3cc[n+](CC(F)(F)F)cc3)CS[C@H]12)c1csc(N)n1 [Example 80, (6R,7R)-7-[(Z)-2-(2-Aminothiazol-4-yl)-2-methoxyiminoacetamido]-3-[1-(2,2,2-trifluoroethylpyridinium-4-yl)thiomethyl]-ceph-3-em-4-carboxylate] | 0.2 (≈ 0.34 µM) | 0.78 (≈ 1.33 µM) | 0.2 (≈ 0.34 µM) | 0.2 (≈ 0.34 µM) | 0.05 (≈ 0.0849 µM) | 0.2 (≈ 0.34 µM) | 1.56 (≈ 2.65 µM) | 0.2 (≈ 0.34 µM) | 0.2 (≈ 0.34 µM) | 0.2 (≈ 0.34 µM) | 
9 | CC(C)(O/N=C(\C(=O)N[C@@H]1C(=O)N2C(C(=O)[O-])=C(CSc3cc[n+](CC(F)(F)F)cc3)CS[C@H]12)c1csc(N)n1)C(=O)O [Example 83, (6R,7R)-7-[(Z)-2-(2-Aminothiazol-4-yl)-2-(carboxyprop-2-oxyimino)acetamido]-3-[1-(2,2,2-trifluoroethylpyridinium-4-yl)thiomethyl]-ceph-3-em-4-carboxylic acid sodium salt] | 3.13 | 0.2 | 6.25 | 0.2 | 0.2 | 0.2 | 0.39 | 0.05 | 0.2 | 0.05 | 
10 | Nc1nc(/C(=N/OCC(=O)O)C(=O)N[C@@H]2C(=O)N3C(C(=O)[O-])=C(CSc4cc[n+](CC(F)(F)F)cc4)CS[C@H]23)cs1 [Example 82, (6R,7R)-7-[(Z)-2-(2-Aminothiazol-4-yl)-2-(carboxymethoxyimino)acetamido]-3-[1-(2,2,2-trifluoroethylpyridinium-4-yl)thiomethyl]-ceph-3-em-4-carboxylic acid sodium salt] | 3.13 | 0.05 | 3.13 | 0.05 | 0.05 | ≤ 0.025 | 0.05 |  | < 0.025 | < 0.025 | MIC ([5]; TYPHIMURIUM): < 0.025 µg/mL
11 | CCO/N=C(\C(=O)N[C@@H]1C(=O)N2C(C(=O)[O-])=C(CSc3cc[n+](CC(F)(F)F)cc3)CS[C@H]12)c1csc(N)n1 [Example 81, (6R,7R)-7-[(Z)-2-(2-Aminothiazol-4-yl)-2-ethoxyiminoacetamido]-3-[1-(2,2,2-trifluoroethylpyridinium-4-yl)thiomethyl]-ceph-3-em-4-carboxylate] | 0.39 (≈ 0.647 µM) | 0.39 (≈ 0.647 µM) | 0.39 (≈ 0.647 µM) | 0.05 (≈ 0.083 µM) | ≤ 0.025 | 0.1 (≈ 0.166 µM) | 0.78 (≈ 1.29 µM) | 0.05 (≈ 0.083 µM) | 0.1 (≈ 0.166 µM) | 0.05 (≈ 0.083 µM) | 
